Patent publication US20120172392A1, “AMINE-BASED AND AMIDE-BASED INHIBITORS OF SEMICARBAZIDE-SENSITIVE AMINE OXIDASE (SSAO) ENZYME ACTIVITY AND VAP-1 MEDIATED ADHESION USEFUL FOR TREATMENT OF DISEASES” (priority 2004, published 2012)
pIC50: −log10 of the molar value. Structures can show the parent of a compound that is named as a salt. Values belong to the compound of their own block, whether it stands above or below them.

Columns and labels:
SSAO [1] = biological target: T1, SSAO (Rattus norvegicus, UniProt O08590); assay: In vitro inhibition of SSAO activity, radiolabeled benzylamine procedure (rat lung homogenate); type: biochemical
T1 construct: SSAO activity in 100 ul of lung homogenate was determined radiochemically; from tissue; host or cells: rat lung homogenate (1000 g supernatant)
T1 sequence (O08590 1-763): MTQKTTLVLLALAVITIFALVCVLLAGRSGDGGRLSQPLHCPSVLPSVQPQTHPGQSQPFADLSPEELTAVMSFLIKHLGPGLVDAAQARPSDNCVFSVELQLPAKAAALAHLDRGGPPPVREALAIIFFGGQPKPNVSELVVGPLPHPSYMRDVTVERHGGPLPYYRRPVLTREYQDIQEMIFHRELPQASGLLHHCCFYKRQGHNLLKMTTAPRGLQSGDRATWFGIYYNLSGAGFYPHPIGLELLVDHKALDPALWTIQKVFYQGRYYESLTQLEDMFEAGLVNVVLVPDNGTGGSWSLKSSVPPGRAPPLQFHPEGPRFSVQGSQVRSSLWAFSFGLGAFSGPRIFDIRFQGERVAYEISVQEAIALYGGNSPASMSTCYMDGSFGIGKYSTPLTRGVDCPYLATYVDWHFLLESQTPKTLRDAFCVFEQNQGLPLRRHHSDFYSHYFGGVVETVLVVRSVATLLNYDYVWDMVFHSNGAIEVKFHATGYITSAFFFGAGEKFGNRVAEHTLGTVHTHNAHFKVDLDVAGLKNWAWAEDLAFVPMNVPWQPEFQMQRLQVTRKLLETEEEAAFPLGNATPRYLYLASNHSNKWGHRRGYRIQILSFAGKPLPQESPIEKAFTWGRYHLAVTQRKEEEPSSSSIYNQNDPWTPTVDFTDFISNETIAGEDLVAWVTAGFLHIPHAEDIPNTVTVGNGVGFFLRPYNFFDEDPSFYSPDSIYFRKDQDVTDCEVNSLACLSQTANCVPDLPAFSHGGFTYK

C57BL/6 mice = assay: Experimental autoimmune encephalomyelitis (EAE) in mice; type: in vivo; details: for EAE development after stopping treatment: after last treatment (d19-25)
Method: Thirty female C57BL/6 mice were immunized subcutaneously (s,c) with myelin oligodendrocyte glycoprotein 35-55 (MOG peptide 35-55) in Complete Freund Adjuvant (CFA) on day 0, followed by i.p. injections of pertussis toxin (one pertussis toxin injection on day 0, a second pertussis toxin injection on day 2). Groups of 10 mice received either the allylamine Compound mofegiline (M1, 10 mg/kg/dose, twice daily for 18 consecutive days), methotrexate (MTX, 2.5 mg/kg/day, every other day (Mon., Weds., Fri.) till day 18) or vehicle control (twice/day for 18 consecutive days) all starting from one day after the immunization and all administered i.p. Then animals were monitored for body weight, signs of paralysis and death according to a 0-5 scale of scoring system as follows; 1=limp tail or waddling gait with tail tonicity; 2=waddling gait with limp tail (ataxia); 2.5=ataxia with partial limb paralysis; 3=full paralysis of one limb; 3.5=full paralysis of one limb with partial paralysis of second limb; 4=full paralysis of two limbs; 4.5=moribund; 5=death. Results are shown in FIG. 1A, FIG. 1B, and FIG. 1C. […] (p=0.04 by repeated measure analysis to assess the treatment effect. Proper polynomial transformation, with the spacing corresponding to the collection days, was applied to test the time effect). Statistically significant differences in diseases severity between the M1 and vehicle-treated groups, continued even after stopping compound administration and were observed until the end of the study (d25).

SSAO [2] = biological target: T1, SSAO; assay: In vitro inhibition of SSAO activity, radiolabeled benzylamine procedure (rat lung homogenate); type: biochemical
Method: SSAO activity was also measured as described (Lizcano J M. Et al. (1998) Biochem J. 331:69). Briefly, rat lung homogenates were prepared by chopping the freshly removed tissue into small pieces and washing them thoroughly in PBS. The tissue was then homogenized 1:10 (w/v) in 10 mM potassium phosphate buffer (pH 7.8) and centrifuged at 1000 g at 4° C. for 10 minutes; the supernatant was kept frozen until ready to use. SSAO activity in 100 ul of lung homogenate was determined radiochemically using 20 uM ^14C-benzylamine as substrate. The reaction was carried out at 37° C. in a final volume of 300 ul of 50 mM potassium phosphate buffer (pH 7.2) and stopped with 100 ul of 2 M citric acid. Radioactively labeled products were extracted into; toluene/ethyl acetate (1:1, v/v) containing 0.6% (w/v) 2,5-diphenyloxdazole (PPO) before liquid scintillation counting.

human MAO-A = biological target: T2, human MAO-A (Homo sapiens, UniProt P21397); assay: Inhibition of MAO-A activity, coupled colorimetric assay; type: biochemical; details: recombinant human MAO-A, tyramine substrate
T2 construct: purchased BD Biosciences (MA, USA)
T2 sequence (P21397 1-527): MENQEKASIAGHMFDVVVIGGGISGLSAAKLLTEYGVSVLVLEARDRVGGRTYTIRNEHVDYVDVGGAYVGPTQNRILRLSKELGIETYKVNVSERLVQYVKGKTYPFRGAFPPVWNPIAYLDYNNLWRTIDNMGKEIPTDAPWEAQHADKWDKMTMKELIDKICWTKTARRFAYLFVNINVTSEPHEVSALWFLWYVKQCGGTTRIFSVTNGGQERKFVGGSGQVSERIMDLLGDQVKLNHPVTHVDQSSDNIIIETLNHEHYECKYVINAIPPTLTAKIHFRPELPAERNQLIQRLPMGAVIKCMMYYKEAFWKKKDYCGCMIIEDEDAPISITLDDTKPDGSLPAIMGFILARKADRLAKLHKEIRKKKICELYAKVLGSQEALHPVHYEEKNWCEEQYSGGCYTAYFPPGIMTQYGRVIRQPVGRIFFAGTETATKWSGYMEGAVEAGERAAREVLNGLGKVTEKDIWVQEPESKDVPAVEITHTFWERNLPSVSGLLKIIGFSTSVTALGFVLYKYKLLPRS
Method: (§1) The specificity of the different SSAO inhibitors was tested by determining their ability to inhibit MAO-A and MAO-B activities in vitro. Recombinant human MAO-A and human MAO-B enzymes were obtained from BD Biosciences (MA, USA). MAO activities were measured in a similar way as for SSAO except that no pre-incubation with inhibitor or substrate was performed. A pre-determined amount of inhibitor diluted in 0.2 M potassium phosphate buffer, pH 7.6, was added to each well, if required. The amount of inhibitor varied in each assay but was generally at a final concentration of between 50 nM and 1 mM. Controls lacked inhibitor. The following agents were then added to a final reaction volume of 200 μl in 0.2 M potassium phosphate buffer, pH 7.6: 0.04 mg/ml of MAO-A or 0.07 mg/ml MAO-B enzyme, 15 μl of 10 mM tyramine substrate (for MAO-A), or 15 μl 100 mM benzylamine substrate (for MAO-B), and 50 μl of freshly made chromogenic solution (as above). The plates were incubated for 60 min at 37° C. The increase in absorbance, reflecting MAO activity, was measured at 490 nm using microplate spectrophotometer (Power Wave 40, Bio-Tek Inst.). Inhibition was determined as percent inhibition compared to control after correcting for background absorbance and IC50 values, and was calculated using. GraphPad Prism software. […]

human MAO-B = biological target: T3, human MAO-B (Homo sapiens, UniProt P27338); assay: Inhibition of MAO-B activity, coupled colorimetric assay; type: biochemical; details: recombinant human MAO-B, benzylamine substrate
T3 construct: purchased BD Biosciences (MA, USA)
T3 sequence (P27338 1-520): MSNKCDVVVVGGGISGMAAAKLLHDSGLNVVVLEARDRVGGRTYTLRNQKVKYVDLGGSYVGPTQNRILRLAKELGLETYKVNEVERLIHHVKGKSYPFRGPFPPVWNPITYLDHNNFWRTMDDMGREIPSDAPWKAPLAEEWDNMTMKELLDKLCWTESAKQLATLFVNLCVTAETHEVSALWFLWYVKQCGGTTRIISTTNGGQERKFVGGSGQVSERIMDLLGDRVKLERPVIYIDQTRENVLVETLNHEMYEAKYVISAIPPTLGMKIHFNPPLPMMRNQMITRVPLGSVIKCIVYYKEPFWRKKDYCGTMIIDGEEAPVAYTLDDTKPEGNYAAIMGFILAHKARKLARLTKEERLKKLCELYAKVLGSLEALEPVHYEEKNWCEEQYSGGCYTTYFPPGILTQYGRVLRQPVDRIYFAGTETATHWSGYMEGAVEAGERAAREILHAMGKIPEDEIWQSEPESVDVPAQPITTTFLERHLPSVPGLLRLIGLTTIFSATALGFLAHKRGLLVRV
Method: as §1

[3] = Table I, compounds of formula X
[4] = Table II, compounds of formula III

- melting point: 114 to 115 °C
SMILES: NCC(=O)NCc1ccc(F)cc1 (as salt: hydrochloride) [LJP 1334, 2-amino-N-(4-fluorobenzyl)acetamide]

- reversibility of inhibition of SSAO enzyme activity (SSAO [1]): irreversible
SMILES: COc1cccc(CCC2=CCNC2)c1.Cl [LJP 1368, 3-[2-(3-methoxyphenyl)ethyl]-3-pyrroline hydrochloride]

- pIC50 (SSAO [2]; [3]): 5.62
SMILES: NCC(=O)NCc1ccc(F)cc1 [compound 1334]

- pIC50 (SSAO [2]; [4]): 5.62
SMILES: Fc1cccc(CCC2=CCNC2)c1 [compound 1367]

- pIC50 (SSAO [2]; [4]): 6.30
- pIC50 (human MAO-A): < 3.00
- pIC50 (human MAO-B): < 3.00
SMILES: COc1cccc(CCC2=CCNC2)c1 [compound 1368]

- inhibition at 10 µM (SSAO [2]; Table II): 56%
SMILES: Fc1ccc(OCC2=CCCNC2)cc1 [compound 1395]

- pIC50 (SSAO [2]; [4]): 5.68
SMILES: COc1ccc(CCC2=CCNC2)cc1 [compound 1396]

- inhibition at 10 µM (SSAO [2]; Table II): 61%
SMILES: Fc1cccc(OCC2=CCCNC2)c1 [compound 1398]

- pIC50 (SSAO [2]; [4]): 5.74
SMILES: Fc1ccc(CCC2=CCNC2)cc1 [compound 1402]

- inhibition at 9 µM (SSAO [2]; Table II): 50%
SMILES: COc1ccc(CCC2=CCNC2)cc1OC [compound 1427]

Further lines, the compound ahead of its results:

SMILES: C#CC(N)CCCc1ccc(OC)cc1 (stereo not shown) (as salt: hydrochloride)
- melting point: 175 °C (dec.)

SMILES: NCC(=O)NCc1cc(F)cc(C(F)(F)F)c1 (as salt: trifluoroacetate) [LJP 1383, 2-amino-N-(3-fluoro-5-trifluoromethylbenzyl)acetamide trifluoroacetate]
- melting point: 189.5 to 190.5 °C

SMILES: NC/C=C(/Cc1ccccc1)C(F)(F)F [Example 3, 3-benzyl-4,4,4-trifluoro-but-2-enylamine]
- melting point: 170 °C (dec.)

SMILES: COc1ccc(CCCC(N)c2ccc(F)c(F)c2)cc1 (stereo not shown) [Example 3D, 1-(3,4-difluorophenyl)-4-(4-methoxyphenyl)-butylamine]
- melting point: 200 °C (dec.)

SMILES: C=CC(N)CCCc1ccccc1 (stereo not shown) [Example 3E, 1-(3-phenyl-propyl)-allylamine]
- melting point: 143 to 144 °C

SMILES: NCC(=O)NCc1cccnc1 [LJP 1356, 2-amino-N-pyridin-3-ylmethylacetamide]
- melting point: 87 to 88 °C

SMILES: CN(Cc1cnc2nc(N)nc(N)c2n1)c1ccc(C(=O)N[C@@H](CCC(=O)O)C(=O)O)cc1 [MTX, methotrexate]
- EAE development after stopping treatment (C57BL/6 mice): a rise in disease incidence and severity was observed right after stopping the MTX treatment

SMILES: NCC(=O)NCc1cccnc1 [compound 1356]
- pIC50 (SSAO [2]; [3]): 6.15

SMILES: NCC(=O)NCc1cc(F)cc(C(F)(F)F)c1 [compound 1383]
- pIC50 (SSAO [2]; [3]): 7.48
- pIC50 (human MAO-A): < 2.89
- pIC50 (human MAO-B): < 2.89
- melting point: 189.5 to 190 °C

SMILES: COc1ccc(OCC2=CCCNC2)cc1OC [compound 1397]
- inhibition at 9 µM (SSAO [2]; Table II): 54%

SMILES: COc1cccc(OCC2=CCCNC2)c1 [compound 1401]
- inhibition at 10 µM (SSAO [2]; Table II): 74%

SMILES: COc1ccc(OCC2=CCCNC2)cc1 [compound 1404]
- inhibition at 10 µM (SSAO [2]; Table II): 63%

SMILES: NC/C(=C/F)CCc1ccc(F)cc1 [mofegiline]
- EAE development after stopping treatment (C57BL/6 mice): continuously observed for at least one more week after the last treatment
- disease (clinical) severity, EAE development (C57BL/6 mice; dosing period d0-18, i.p., mofegiline 10 mg/kg/dose twice daily, MTX 2.5 mg/kg/day every other day): statistically significant reduction of disease seventy
- disease incidence (mice affected) (C57BL/6 mice; dosing period up to day 18, 10 mg/kg/dose i.p. twice daily): 50%
- body weight (C57BL/6 mice; dosing period, 10 mg/kg/dose i.p. twice daily): prevented body weight loss
